# In patent US9296716B2, “Androgen receptor ligands” (THE PROVOST, FELLOWS, FOUNDATION SCHOLARS, & THE OTHER …, priority 2011, dated 2016):
# How the values were obtained:
# [1] = system: PSA expression in 22Rv1 cells; experiment: PSA ELISA, secreted PSA in 22Rv1 cells; type: cell-based
# Method: (§1) To investigate compounds effect on PSA expression, a common biomarker for prostate cancer, we utilized a human PSA ELISA assay.
# (§2) We repeated the same experiment in 22Rv1 cell line.
# (§3) Secreted levels of prostate specific antigen were evaluated with a commercially available kit (Quantikine Human Kallikrein 3/PSA Immunoassay, R&D systems). The assay was performed following manufacturer's guidelines. In brief, 50 μl of standards and cell culture samples were added to pre-coated wells containing assay diluent RD1W (R&D systems) and incubated for two hours at room temperature. Unbound material was washed several times and 200 μl of Horseradish Peroxidase (HRP) labeled PSA conjugate antibody was added to each well and further incubated for two hours at room temperature. Wells were washed and treated with colored substrate (Tetramethylbenzidine) for an additional 30 minutes, after which 50 μl of stop solution (Sulphuric Acid 2N) was added per well and absorbance (450 nm with correction at 540 nm) was read with a plate reader within 30 minutes (Versamax).
# LNCaP cells = experiment: LNCaP cell proliferation assay (androgen deprived, AlamarBlue); type: cell-based; conditions: LNCaP
# Method: To determine the optimal DHT concentration and length of treatment required for cell proliferation assays, we tested a range of DHT concentrations in 0.1% DMSO for 5 or 7 days in LNCaP cells cultured in FBS stripped phenol red free media. […] Media and treatments were replaced every second incubation day (FIGS. 12 A and B)
# (§4) For cell viability (end point) assays LNCaP, PC-3 and PWR-1E cells were seeded at 2.5*10^4/ml density in 200 μl volume of a 96-well plate in triplicate and incubated for 24 hours prior testing. Test compounds were included at different concentrations to achieve a final concentration of 0.5% DMSO in each well. Effect of 0.5% DMSO on cell-viability was also evaluated. Cell viability was assessed after 24 hours of treatment using 10% Alamar Blue reagent (Invitrogen) for each well. Cell viability was monitored by the reduction of resazurin, a blue, cell-permeable and non-toxic compound, to resorufin, a red and highly fluorescent product. Viable cells continuously convert resazurin to resorufin, increasing the overall colour and fluorescence of the media surrounding cells. Fluorescence intensity can be quantitatively determined with a fluorescence microplate reader at excitation/emission 544 nm/590 nm (Spectramax Gemini). For hormone dependent cell proliferation assays in androgen deprived LNCaP cells, cells were seeded at 2*10^4 cells/ml in a 24-well plate in triplicate. Cells were plated in phenol red free RPMI Glutamax (Invitrogen) supplemented with 10% charcoal-stripped FBS to deplete endogenous steroids 48 hours prior the assay as described in previous reports. […] Cells were treated with different concentrations of test compounds with or without 0.1 nM DHT to achieve a final concentration of 0.1% DMSO in each well. A control for the vehicle was included to ensure no effect on viability could be detected. Media and treatments were replaced every second day, after washing the cells twice with 1×PBS. Supernatants were collected after five days for secreted PSA levels evaluation and cell proliferation was assessed for the same plate using Alamar Blue in order to exclude non-specific effects due to toxicity issues.
# [2] = system: PSA expression in LNCaP cells; experiment: PSA ELISA, secreted PSA in LNCaP cells; type: cell-based
# Method: as §1, §4
# as §3, with “Unbound material was washed several times and 200 μl of Horseradish Peroxidase (HRP) labeled PSA conjugate antibody was added to each well and further incubated for two hours at room temperature.” left out
# 22Rv1 cells = experiment: 22Rv1 cell proliferation assay; type: cell-based
# Method: Thus, inhibition on cell proliferation by the compounds could not be evaluated (FIG. 14)
# as §2
# For cell viability (end point) assays LNCaP, PC-3 and PWR-1E cells were seeded at 2.5*10^4/ml density in 200 μl volume of a 96-well plate in triplicate and incubated for 24 hours prior testing. Test compounds were included at different concentrations to achieve a final concentration of 0.5% DMSO in each well. Effect of 0.5% DMSO on cell-viability was also evaluated. Cell viability was assessed after 24 hours of treatment using 10% Alamar Blue reagent (Invitrogen) for each well. Cell viability was monitored by the reduction of resazurin, a blue, cell-permeable and non-toxic compound, to resorufin, a red and highly fluorescent product. Viable cells continuously convert resazurin to resorufin, increasing the overall colour and fluorescence of the media surrounding cells. Fluorescence intensity can be quantitatively determined with a fluorescence microplate reader at excitation/emission 544 nm/590 nm (Spectramax Gemini). […] A control for the vehicle was included to ensure no effect on viability could be detected. […] Supernatants were collected after five days for secreted PSA levels evaluation and cell proliferation was assessed for the same plate using Alamar Blue in order to exclude non-specific effects due to toxicity issues.
# [3] = biological target: T1, Estrogen Receptor alpha (ER-α) LBD (Homo sapiens, UniProt P03372); experiment: TR-FRET PGC1-α coactivator recruitment assay, ERα LBD; type: biochemical; conditions: Estradiol = EC80
# T1 sequence (P03372 311-547 limits assumed): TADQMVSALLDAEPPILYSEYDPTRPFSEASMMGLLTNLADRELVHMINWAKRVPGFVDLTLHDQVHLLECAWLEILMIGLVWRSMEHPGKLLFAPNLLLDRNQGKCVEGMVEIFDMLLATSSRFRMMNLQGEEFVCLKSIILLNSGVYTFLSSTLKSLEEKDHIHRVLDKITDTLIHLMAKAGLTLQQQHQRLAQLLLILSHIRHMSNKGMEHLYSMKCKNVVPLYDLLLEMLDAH
# Method: (§5) Compound binding affinities for Progesterone Receptor (PR), Glucocorticoid Receptor (GR), Estrogen Receptor alpha and Estrogen Receptor beta were determined using TR-FRET (Table 2).
# (§6) Selectivity of the diarylhydrazide scaffold for the AR was determined through a TR-FRET assay in ERα (FIGS. 8A & 9A1) and ERR (FIGS. 8B & 9A2). […] The non-LBP nature of this inhibition was confirmed by a FP assay (FIGS. 9C, 9B1 & 9B2).
# (§7) Lanthascreen TR-FRET AR Coactivator Assay kit (Invitrogen, cat no. PV4381) was used to screen for potential coactivator disruptors.
# (§8) TR FRET values were calculated at 10 flashes per well, using a delay time of 100 μs and integration time 200 μs as recommended by the Invitrogen assay guidelines. […] A serial dilution of compounds was firstly prepared in 100×DMSO (Sigma-Aldrich) starting from the maximum desired concentration to achieve a 12 point range concentration using 96-well polypropylene plates (Nalgene Nunc, Rochester, N.Y.). Each 100× solution was diluted to 2× concentration with TR-FRET co-regulator buffer A (Invitrogen proprietary buffer), yielding a final concentration of 1% DMSO in each well.
# (§9) D11-FxxLF and Tb antibody were premixed in light protecting vials prior to use. A final concentration of DTT 5 mM was used in the assay buffer in order to prevent protein degradation. All plates (agonist and antagonist mode) were incubated between 2 and 4 hours at room temperature protected from light prior to TR-FRET measurement. […] Data was fitted using the sigmoidal dose response (variable slope) available from Graphpad Prism 5. Y=Bottom+(Top-Bottom)/(1+10^((Log IC50−X)*HillSlope))
# (§10) The same procedure was used for AR T877A (Invitrogen cat no. PV4667), PR (Invitrogen cat no. PV4666), ER-α (Invitrogen cat no. PV4544), ER-β (Invitrogen cat no. PV4541) and GR (Invitrogen cat no. PV4683). The assay was adapted to exclude possible non-specific aggregation mechanism of inhibition by adding very low concentration of detergent Triton X-100 (0.001%) to the assay buffer following the Shoichet review guidelines [Shoichet BK (2006) Screening in a spirit haunted world. Drug Discov Today 11:607-615].
# [4] = biological target: Estrogen Receptor beta (ER-β) LBD (Homo sapiens, UniProt Q92731); experiment: TR-FRET PGC1-α coactivator recruitment assay, ERβ LBD; type: biochemical; conditions: Estradiol = EC80
# Chain of Estrogen Receptor beta (ER-β) LBD (Q92731 264-498 limits assumed): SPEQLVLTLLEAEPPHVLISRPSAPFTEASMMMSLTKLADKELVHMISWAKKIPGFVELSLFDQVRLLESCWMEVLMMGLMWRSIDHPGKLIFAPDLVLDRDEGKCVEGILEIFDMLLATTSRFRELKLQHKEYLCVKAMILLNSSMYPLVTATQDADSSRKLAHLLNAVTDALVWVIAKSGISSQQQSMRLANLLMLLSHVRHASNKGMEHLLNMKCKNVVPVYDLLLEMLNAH
# Method: as §5, §6, §7, §8, §9, §10
compound,measurement,setting,value
COc1cc(/C=N/NC(=O)c2cc3c(ccc4ccccc43)o2)cc(OC)c1O [MDG506],DHT stimulated PSA expression,[1]; 22Rv1,no effect could be seen
same,PSA expression in absence of androgens,[1]; 22Rv1,does not induce
same,CPA stimulated PSA expression,"[1]; 22Rv1, MDG506 at different concentrations",reduced
same,DHT dependent cell proliferation,"LNCaP cells; DHT 0.1 nM, 5 days",clear dose dependent effect in reducing
same,CPA induced cell proliferation,LNCaP cells; MDG506 at 10 or 20 μM,reduces
same,cell proliferation in absence of DHT / androgens,"LNCaP cells; androgen deprived media, no DHT",does not induce
same,PSA expression in absence of androgens,[2],does not induce
same,CPA stimulated PSA secretion / expression,[2]; MDG506 at 10 or 20 μM,significantly (P<0.001) reduces
same,DHT stimulated PSA expression,[2]; concentrations up to 20 μM,dose dependent inhibition
same,cell proliferation in absence of androgens,22Rv1 cells,does not induce
same,effect on ERα recruitment of fluorescent labelled PGC1-α,[3]; 100 μM to 45 nM,partially inhibit
same,IC50,"[3]; TR-FRET, ± SEM (n = 6), read-out: NR LBDs IC50 (μM) ER-α",> 100 µM
same,effect on ERβ recruitment of fluorescent labelled PGC1-α,[4]; 100 μM to 45 nM,partially inhibit
same,IC50,"[4]; TR-FRET, ± SEM (n = 6), read-out: NR LBDs IC50 (μM) ER-β",> 100 µM
